Assay results: PubChem BioAssay (NCI)
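In this assay, cells in 96-well plates receive the compound at five concentrations for 48 hours. Endpoints are linearly interpolated between the surrounding concentrations. The concentration for 50% growth inhibition is given as GI50. TGI marks complete inhibition of growth.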

Columns and labels:
Assay in all cases: DTP human tumour cell line panel, 48 h
SK-MEL-2 melanoma = system: SK-MEL-2 melanoma
HL-60(TB) leukemia = system: HL-60(TB) leukemia
MDA-MB-231 breast = system: MDA-MB-231 breast
K-562 leukemia = system: K-562 leukemia
HT29 colon = system: HT29 colon
SK-OV-3 ovarian = system: SK-OV-3 ovarian
MCF7 breast = system: MCF7 breast
A498 renal = system: A498 renal
SW-620 colon = system: SW-620 colon
EKVX NSCLC = system: EKVX NSCLC
NCI-H460 lung = system: NCI-H460 lung
OVCAR-3 ovarian = system: OVCAR-3 ovarian
MOLT-4 leukemia = system: MOLT-4 leukemia
ACHN renal = system: ACHN renal
MALME-3M melanoma = system: MALME-3M melanoma
U251 CNS = system: U251 CNS
NCI-H23 lung = system: NCI-H23 lung
HCT-15 colon = system: HCT-15 colon
MDA-MB-435 = system: MDA-MB-435

Row | Compound | TGI (SK-MEL-2 melanoma) [µM] | TGI (HL-60(TB) leukemia) [µM] | TGI (MDA-MB-231 breast) [µM] | TGI (K-562 leukemia) [µM] | TGI (HT29 colon) [µM] | TGI (SK-OV-3 ovarian) [µM] | TGI (MCF7 breast) [µM] | TGI (A498 renal) [µM] | TGI (SW-620 colon) [µM] | TGI (EKVX NSCLC) [µM] | TGI (NCI-H460 lung) [µM] | TGI (OVCAR-3 ovarian) [µM] | TGI (MOLT-4 leukemia) [µM] | TGI (ACHN renal) [µM] | TGI (MALME-3M melanoma) [µM] | TGI (U251 CNS) [µM] | TGI (NCI-H23 lung) [µM] | TGI (HCT-15 colon) [µM] | TGI (MDA-MB-435) [µM] | GI50 (A498 renal) [µM]
1 | COC(=O)Cc1c([C@H]2[C@H](CC(=O)OC)c3ccccc3N2S(=O)(=O)c2ccc(C)cc2)[nH]c2ccccc12 | > 100 | > 100 | > 100 | > 100 | > 100 | > 100 | > 100 | > 100 | > 100 | > 100 | > 100 | > 100 | > 100 | > 100 | > 100 | > 100 | > 100 | > 100 | > 100 | 
2 | CCS(=O)c1c2cc(OC)ccc2nc2ccc(OC)cc12 (stereo not given) | 35.3 | > 100 | 11.2 | 5.81 | 10 | 47.5 | > 100 | 33.6 | > 65.9 | 32.3 | > 68 | 14.9 | > 23.8 | 13 | 12.6 | > 55.3 | 19.9 | > 52.5 | 26.4 | 
3 | O=[N+]([O-])c1ccc2sc(/C=N/c3ccccn3)cc2c1 | > 100 | > 100 | > 100 | 96.6 | > 100 | > 100 | > 100 | > 100 | > 100 | > 100 | > 100 | > 100 | 53.5 | > 100 | > 100 | > 100 | > 100 | > 100 | > 100 | 
4 | O=C(COc1ccccc1)N(C(=O)N1CCN(c2ccccc2)CC1)S(=O)(=O)c1ccccc1 | > 100 | > 100 | > 100 | > 100 | > 100 | > 100 | > 100 | > 100 | > 100 | > 100 | > 100 | > 100 | 61.9 | > 100 | > 100 | > 100 | > 100 | > 100 | > 100 | 
5 | COc1ccc(CNc2nc(NCc3ccc(OC)cc3)nc(NC3CCCC3)n2)cc1 | > 100 | > 28.3 | > 31.2 | > 24.7 | 13.6 | > 100 | 9.83 | > 100 | > 100 | > 100 | > 33.8 | > 23 | > 100 | > 100 | > 100 | > 25.3 | > 22.2 | > 20.6 | 4.95 | 62.1
6 | Cc1ccc(S(=O)(=O)N/N=C2\CCC3(O)CC2(C)CCC2C3CC2(C)C)cc1 (stereo not given) | 87.1 | > 100 | > 100 | > 100 | > 100 | > 100 | > 100 | > 100 | > 100 | > 100 | 46.7 | > 100 | > 100 | > 100 | > 100 | > 100 | > 100 | > 100 | > 100 | 
